Measured values published in US9000022B2 (Exelixis Patent Company LLC, priority 2005, dated 2015).

Tested on: LXRα and/or LXRβ
Test: Co-transfection assay (LXRE luciferase reporter, CV-1 cells)
Format: cell-based, human
Conditions: tested as described in Example 33; IC50 or EC50 for LXRα and/or LXRβ, isoform not specified; read-out: activity (IC50 or EC50 for LXR)
In short: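 CV-1 cells transiently co-transfected with full-length human LXRα or LXRβ plus RXRα, an LXRE×1-Tk-luciferase reporter and a β-galactosidase control. Compounds incubated 20 h at 37 °C (≤1% DMSO; screen at 10 μM final); luciferase read after lysis. EC50/IC50 from 8-point half-log curves (4 wells per point, ≥3 experiments); efficacy relative to a reference agonist high control and DMSO.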

CC(C)(O)c1cn(-c2ccc(-c3cc(C(F)(F)F)ccc3F)cc2)c(-c2ccccc2C(F)(F)F)n1 [Example 220, 2-{1-[2′-fluoro-5′-(trifluoro-methyl)biphenyl-4-yl]-2-[2-(trifluoro-methyl)phenyl]-1H-imidazol-4-yl}propan-2-ol]
IC50 or EC50 (potency, activation or inhibition): < 1000 nM

COc1ncccc1-c1ccc(-n2cc(C(C)(C)O)nc2-c2ccccc2C(F)(F)F)cc1 [Example 274, 2-(1-{4-[2-(methyloxy)pyridin-3-yl]phenyl}-2-[2-(trifluoro-methyl)phenyl]-1H-imidazol-4-yl)propan-2-ol]
IC50 or EC50 (potency, activation or inhibition): 1000 to 10000 nM

CNS(=O)(=O)c1cccc(-c2ccc(-n3cc(C(C)(C)O)nc3-c3ccccc3C(F)(F)F)cc2)c1 [Example 344, 4′-{4-(1-hydroxy-1-methylethyl)-2-[2-(trifluoromethyl)phenyl]-1H-imidazol-1-yl}-N-methylbiphenyl-3-sulfonamide]
IC50 or EC50 (potency, activation or inhibition): < 1000 nM

CS(=O)(=O)c1cccc(-c2ccc(-c3[nH]c(C(F)(F)F)nc3-c3ccccc3Cl)s2)c1 [Example 357, 4-(2-chlorophenyl)-5-{5-[3-(methylsulfonyl)phenyl]-2-thienyl}-2-(trifluoromethyl)-1H-imidazole]
IC50 or EC50 (potency, activation or inhibition): < 1000 nM

CS(=O)(=O)c1cccc(-c2ccc(-n3cc(C(F)(F)F)nc3-c3ccccc3Cl)cc2)c1 [Example 358, 2-(2-chlorophenyl)-1-[3′-(methyl-sulfonyl)biphenyl-4-yl]-4-(trifluoro-methyl)-1H-imidazole]
IC50 or EC50 (potency, activation or inhibition): < 1000 nM

CS(=O)(=O)c1cccc(-c2ccc(-c3[nH]c(C(F)(F)F)nc3-c3ccccc3Cl)cc2)c1 [Example 359, 4-(2-chlorophenyl)-5-[3′-(methyl-sulfonyl)biphenyl-4-yl]-2-(trifluoro-methyl)-1H-imidazole]
IC50 or EC50 (potency, activation or inhibition): < 1000 nM

NS(=O)(=O)c1cccc(-c2ccc(-n3cc(C(F)(F)F)nc3-c3ccccc3Cl)cc2)c1 [Example 360, 4′-[2-(2-chlorophenyl)-4-(trifluoro-methyl)-1H-imidazol-1-yl]biphenyl-3-sulfonamide]
IC50 or EC50 (potency, activation or inhibition): < 1000 nM

NS(=O)(=O)c1cccc(-c2ccc(-c3[nH]c(C(F)(F)F)nc3-c3ccccc3Cl)cc2)c1 [Example 361, 4′-[4-(2-chlorophenyl)-2-(trifluoro-methyl)-1H-imidazol-5-yl]biphenyl-3-sulfonamide]
IC50 or EC50 (potency, activation or inhibition): 1000 to 10000 nM

NS(=O)(=O)c1cccc(-c2ccc(-c3[nH]c(C(F)(F)F)nc3-c3ccccc3Cl)s2)c1 [Example 362, 3-{5-[4-(2-chlorophenyl)-2-(trifluoro-methyl)-1H-imidazol-5-yl]-2-thienyl}benzenesulfonamide]
IC50 or EC50 (potency, activation or inhibition): < 1000 nM

FC(F)(F)c1cn(-c2ccc(Br)cc2)c(-c2ccccc2C(F)(F)F)n1 [Example 363, 1-(4-bromophenyl)-4-(trifluoromethyl)-2-[2-(trifluoromethyl)phenyl]-1H-imidazole]
IC50 or EC50 (potency, activation or inhibition): 1000 to 10000 nM

CS(=O)(=O)c1cccc(-c2ccc(-n3cc(C(F)(F)F)nc3-c3ccccc3C(F)(F)F)cc2)c1 [Example 364, 1-[3′-(methylsulfonyl)biphenyl-4-yl]-4-(trifluoromethyl)-2-[2-(trifluoro-methyl)phenyl]-1H-imidazole]
IC50 or EC50 (potency, activation or inhibition): < 1000 nM

NS(=O)(=O)c1cccc(-c2ccc(-n3cc(C(F)(F)F)nc3-c3ccccc3C(F)(F)F)cc2)c1 [Example 365, 4′-{4-(trifluoromethyl)-2-[2-(trifluoromethyl)phenyl]-1H-imidazol-1-yl}biphenyl-3-sulfonamide]
IC50 or EC50 (potency, activation or inhibition): < 1000 nM

CCOC(=O)c1cn(-c2ccc(Br)cc2)c(-c2ccccc2C(F)(F)F)n1 [Example 366, ethyl 1-(4-bromophenyl)-2-[2-(trifluoromethyl)phenyl]-1H-imidazole-4-carboxylate]
IC50 or EC50 (potency, activation or inhibition): 1000 to 10000 nM

CCOC(=O)c1cn(-c2ccc(-c3cccc(S(C)(=O)=O)c3)cc2)c(-c2ccccc2C(F)(F)F)n1 [Example 367]
IC50 or EC50 (potency, activation or inhibition): < 1000 nM
